Laboratory results published in patent US20150299125A1, “PRODRUG BIPYRIDYLAMINOPYRIDINES AS SYK INHIBITORS” (MERCK SHARP & DOHME CORP., priority 2012, published 2015).
In brackets after ≈: the same amount, converted by molar mass. Like-named read-outs stand apart in the source and are kept apart here.

Key:
[1] = biological target: T1, recombinant human GST-Syk (Homo sapiens, UniProt P43405); assay: Homogeneous Time-Resolved Fluorescence (HTRF) assay for the recombinant human Syk enzyme; assay type: biochemical; conditions: recombinant human GST-Syk 5 pM, ATP 25 μM, read-out: IC50
T1 construct: purchased Carna Biosciences 08-176
Procedure: Syk inhibition of the compounds of Formula (I) may be determined using the following assay protocol: Homogeneous Time-Resolved Fluorescence (HTRF) Assay for the Recombinant Human Syk Enzyme: A recombinant GST-hSyk fusion protein was used to measure potency of compounds to inhibit human Syk activity. […] Final volume of the reaction was 10 μL. Phosphorylation of the peptide was allowed to proceed for 45' at room temperature. To quench the reaction and detect the phosphorylated product, 2 nM of a Europium-anti-phosphotyrosine antibody (Perkin Elmer #AD0161) and 70 nM SA-APC (Perkin-Elmer #CR130-100) were added together in 15 mM Tris pH 7.5, 40 mM EDTA, 0.01% tween 20. Final volume of the quenching solution was 10 μL. The resulting HTRF signal was measured after 30 minutes on a EnVision (Perkin-Elmer) reader using a time-resolved fluorescence protocol.

[2] = Solubility in biorelevant fasted state simulated intestinal fluid (FaSSIF); assay type: physicochemical
Procedure: Solubility in Biorelevant Fasted State Simulated Intestinal Fluid (FaSSIF):
A 10 mM DMSO stock solution of compound to be tested is used. A 100 μM standard solution is generated by diluting 2.5 μL of the 10 mM stock solution with 247.5 μL of diluent (10% DMSO/10% MeCN/80% MeOH, v/v/v). A solubility solution is generated by diluting 5 μL of the 10 mM stock solution with 245 μL of FaSSIF (maximum solubility approximately 200 μM). […] The equilibrated solubility solution is filtered by centrifugation (3 minutes at 4000 rpm) using a 0.45 µm filter with a polypropylene membrane. The standard solution and the filtered equilibrated solubility solution are analyzed by HPLC/DAD. The solubility value is calculated by the following equation:
Solubility=(Peak area of sample/Peak area of standard)(Standard concentration)

[3] = 25 °C, fassif, kinetic from dmso stock, Solubility

Row | Compound | IC50 [1] [nM] | solubility [2, 3] [µM] | solubility ([2]; read-out: Solubility) [µM]
1 | COCCN(C)C(=O)OC(C)OC(=O)[C@H]1CC[C@H]([C@@](C)(O)c2ccc(-c3cc(C)cc(Nc4cc(C(F)F)ccn4)n3)cn2)CC1 (single isomer, unassigned) [Example 4-1a] | 24.7 | 40 (≈ 25.7 µg/mL) | 
2 | Cc1cc(Nc2cc(C(F)F)ccn2)nc(-c2ccc([C@](C)(O)[C@H]3CC[C@H](C(=O)OCC[S@+](C)[O-])CC3)nc2)c1 (single isomer, unassigned) [Example 7-1b] | 3.3 | 52 (≈ 29.8 µg/mL) | 
3 | Cc1cc(Nc2cc(C(F)F)ccn2)nc(-c2ccc([C@](C)(O)[C@H]3CC[C@H](C(=O)OCOC(=O)OCC[S+](C)[O-])CC3)nc2)c1 (single isomer, unassigned) [Example 7-6] | 1 | 156 (≈ 101 µg/mL) | 
4 | Cc1cc(Nc2cc(C(F)F)ccn2)nc(-c2ccc([C@](C)(O)[C@H]3CC[C@H](C(=O)O[C@H]4CC[C@@H](N)CC4)CC3)nc2)c1 [Example 1-2, cis-4-Aminocyclohexyl trans-4-[(1R)-1-(6-{[4-(difluoromethyl)pyridin-2-yl]amino}-4-methyl-2,3′-bipyridin-6′-yl)-1-hydroxyethyl]cyclohexanecarboxylate] | 4.2 | 114 (≈ 66.1 µg/mL) | 
5 | Cc1cc(Nc2cc(C(F)F)ccn2)nc(-c2ccc([C@](C)(O)[C@H]3CC[C@H](C(=O)O[C@H]4C[C@H](N)C4)CC3)nc2)c1 [Example 1-5, trans-3-Aminocyclobutyl trans-4-[(1R)-1-(6-{[4-(difluoromethyl)pyridin-2-yl]amino}-4-methyl-2,3′-bipyridin-6′-yl)-1-hydroxyethyl]cyclohexanecarboxylate] | 4.4 |  | 164 (≈ 90.5 µg/mL)
6 | CSCCCOC(=O)[C@H]1CC[C@H]([C@@](C)(O)c2ccc(-c3cc(C)cc(Nc4cc(C(F)F)ccn4)n3)cn2)CC1 [Example 1-9, 3-(methylsulfanyl)propyl trans-4-[(1R)-1-(6-{[4-(difluoromethyl)pyridin-2-yl]amino}-4-methyl-2,3′-bipyridin-6′-yl)-1-hydroxyethyl] cyclohexanecarboxylate] | 27.7 | 43 (≈ 24.5 µg/mL) | 
7 | Cc1cc(Nc2cc(C(F)F)ccn2)nc(-c2ccc([C@](C)(O)[C@H]3CC[C@H](C(=O)OCc4nccn4C)CC3)nc2)c1 [Example 1-11, (1-methyl-1H-imidazol-2-yl)methyl trans-4-[(1R)-1-(6-{[4-(difluoromethyl)pyridin-2-yl]amino}-4-methyl-2,3′-bipyridin-6′-yl)-1-hydroxyethyl] cyclohexanecarboxylate] | 2.1 | 57 (≈ 32.9 µg/mL) | 
8 | CCCC[N+](CCCC)(CCCC)COC(=O)[C@H]1CC[C@H]([C@@](C)(O)c2ccc(-c3cc(C)cc(Nc4cc(C(F)F)ccn4)n3)cn2)CC1 [Example 5-4, N,N-dibutyl-N-{[({trans-4-[(1R)-1-(6-{[4-(difluoromethyl)pyridin-2-yl]amino}-4-methyl-2,3′-bipyridin-6′-yl)-1-hydroxyethyl]cyclohexyl}carbonyl)oxy]methyl}butan-1-aminium] | 1.1 |  | 
9 | CCCCCCCC[N+](CCCCCCCC)(CCCCCCCC)COC(=O)[C@H]1CC[C@H]([C@@](C)(O)c2ccc(-c3cc(C)cc(Nc4cc(C(F)F)ccn4)n3)cn2)CC1 [Example 5-8, N-{[({trans-4-[(1R)-1-(6-{[4-(difluoromethyl)pyridin-2-yl]amino}-4-methyl-2,3′-bipyridin-6′-yl)-1-hydroxyethyl]cyclohexyl}carbonyl)oxy]methyl}-N,N-dioctyloctan-1-aminium] | 2.5 |  | 
10 | Cc1cc(Nc2cc(C(F)F)ccn2)nc(-c2ccc([C@](C)(O)[C@H]3CC[C@H](C(=O)OC[N+]4(C)CCC(F)(F)CC4)CC3)nc2)c1 [Example 5-13, 1-{[({trans-4-[(1R)-1-(6-{[4-(difluoromethyl)pyridin-2-yl]amino}-4-methyl-2,3′-bipyridin-6′-yl)-1-hydroxyethyl]cyclohexyl}carbonyl)oxy]methyl}-4,4-difluoro-1-methylpiperidinium] | 1.3 |  | 
11 | Cc1cc(Nc2cc(C(F)F)ccn2)nc(-c2ccc([C@](C)(O)[C@H]3CC[C@H](C(=O)OC[N+](C)(C)C(C)c4ccccc4)CC3)nc2)c1 (stereo partly drawn) [Example 5-15, N-{[({trans-4-[(1R)-1-(6-{[4-(difluoromethyl)pyridin-2-yl]amino}-4-methyl-2,3′-bipyridin-6′-yl)-1-hydroxyethyl]cyclohexyl}carbonyl)oxy]methyl}-N,N-dimethyl-1-phenylethanaminium] | < 0.5 |  | 
12 | Cc1cc(Nc2cc(C(F)F)ccn2)nc(-c2ccc([C@](C)(O)[C@H]3CC[C@H](C(=O)OC[N+]4(CC#N)CCCCC4)CC3)nc2)c1 [Example 5-16, 1-(cyanomethyl)-1-{[({trans-4-[(1R)-1-(6-{[4-(difluoromethyl)pyridin-2-yl]amino}-4-methyl-2,3′-bipyridin-6′-yl)-1-hydroxyethyl]cyclohexyl}carbonyl)oxy]methyl}piperidinium] | 0.6 |  | 
13 | CCCC[N+](C)(CCCC)COC(=O)[C@H]1CC[C@H]([C@@](C)(O)c2ccc(-c3cc(C)cc(Nc4cc(C(F)F)ccn4)n3)cn2)CC1 [Example 5-18, N-butyl-N-{[({trans-4-[(1R)-1-(6-{[4-(difluoromethyl)pyridin-2-yl]amino}-4-methyl-2,3′-bipyridin-6′-yl)-1-hydroxyethyl]cyclohexyl}carbonyl)oxy]methyl}-N-methylbutan-1-aminium] | 1.4 |  | 
14 | CCOC(=O)C[N+](C)(C)COC(=O)[C@H]1CC[C@H]([C@@](C)(O)c2ccc(-c3cc(C)cc(Nc4cc(C(F)F)ccn4)n3)cn2)CC1 [Example 5-19, N-{[({trans-4-[(1R)-1-(6-{[4-(difluoromethyl)pyridin-2-yl]amino}-4-methyl-2,3′-bipyridin-6′-yl)-1-hydroxyethyl]cyclohexyl}carbonyl)oxy]methyl}-2-ethoxy-N,N-dimethyl-2-oxoethanaminium] | 0.8 |  | 
15 | Cc1cc(Nc2cc(C(F)F)ccn2)nc(-c2ccc([C@](C)(O)[C@H]3CC[C@H](C(=O)OC[N+](C)(C)CCc4ccccn4)CC3)nc2)c1 [Example 5-21, N-{[({trans-4-[(1R)-1-(6-{[4-(difluoromethyl)pyridin-2-yl]amino}-4-methyl-2,3′-bipyridin-6′-yl)-1-hydroxyethyl]cyclohexyl}carbonyl)oxy]methyl}-N,N-dimethyl-2-pyridin-2-ylethanaminium] | < 0.5 |  | 
16 | CC[N+](CC)(COC(=O)[C@H]1CC[C@H]([C@@](C)(O)c2ccc(-c3cc(C)cc(Nc4cc(C(F)F)ccn4)n3)cn2)CC1)C1CCCCC1 [Example 5-22, N-{[({trans-4-[(1R)-1-(6-{[4-(difluoromethyl)pyridin-2-yl]amino}-4-methyl-2,3′-bipyridin-6′-yl)-1-hydroxyethyl]cyclohexyl}carbonyl)oxy]methyl}-N,N-diethylcyclohexanaminium] | 0.9 |  | 
17 | Cc1cc(Nc2cc(C(F)F)ccn2)nc(-c2ccc([C@](C)(O)[C@H]3CC[C@H](C(=O)OC[N+](C)(C4CCCCC4)C4CCCCC4)CC3)nc2)c1 [Example 5-24, N-cyclohexyl-N-{[({trans-4-[(1R)-1-(6-{[4-(difluoromethyl)pyridin-2-yl]amino}-4-methyl-2,3′-bipyridin-6′-yl)-1-hydroxyethyl]cyclohexyl}carbonyl)oxy]methyl}-N-methylcyclohexanaminium] | 1 |  | 
18 | Cc1cc(Nc2cc(C(F)F)ccn2)nc(-c2ccc([C@](C)(O)[C@H]3CC[C@H](C(=O)OC[N+]4(C)CCN(CCO)CC4)CC3)nc2)c1 [Example 5-28, 1-{[({trans-4-[(1R)-1-(6-{[4-(difluoromethyl)pyridin-2-yl]amino}-4-methyl-2,3′-bipyridin-6′-yl)-1-hydroxyethyl]cyclohexyl}carbonyl)oxy]methyl}-4-(2-hydroxyethyl)-1-methylpiperazin-1-ium] | 2.9 |  | 
19 | Cc1cc(Nc2cc(C(F)F)ccn2)nc(-c2ccc([C@](C)(O)[C@H]3CC[C@H](C(=O)OCn4ccnc4)CC3)nc2)c1 [Example 6-4, 1H-imidazol-1-ylmethyl trans-4-[(1R)-1-(6-{[4-(difluoromethyl)pyridin-2-yl]amino}-4-methyl-2,3′-bipyridin-6′-yl)-1-hydroxyethyl]cyclohexanecarboxylate] |  | 156 (≈ 87.8 µg/mL) | 
20 | Cc1cc(Nc2cc(C(F)F)ccn2)nc(-c2ccc([C@](C)(O)[C@H]3CC[C@H](C(=O)OCC[S+](C)[O-])CC3)nc2)c1 (stereo partly drawn) [Example 7-3, 2-(methylsulfinyl)ethyl trans-4-[(1R)-1-(6-{[4-(difluoromethyl)pyridin-2-yl]amino}-4-methyl-2,3′-bipyridin-6′-yl)-1-hydroxyethyl]cyclohexane-carboxylate] | 3.3 |  | 
21 | Cc1cc(Nc2cc(C(F)F)ccn2)nc(-c2ccc([C@](C)(O)[C@H]3CC[C@H](C(=O)OCOC(=O)OCCS(C)(=O)=O)CC3)nc2)c1 [Example 7-7, ({[2-(methylsulfonyl)ethoxy]carbonyl}oxy)methyl trans-4-[(1R)-1-(6-{[4-(difluoromethyl)pyridin-2-yl]amino}-4-methyl-2,3′-bipyridin-6′-yl)-1-hydroxyethyl]cyclohexane-carboxylate] | 4.5 |  | 
